Experimental data reported in patent US9573956B2, “Compounds as dual inhibitors of phosphodiesterases and histone deacetylases” (FUNDACIÓN PARA LA INVESTIGACIÓN MÉDICA APLICADA, priority 2013, dated 2017).
Read-outs that look alike come from different tables or passages of the source.

Tests used:
Assay type in all cases: biochemical
HDAC1 = HDAC1 (Homo sapiens, UniProt Q13547); test: HDAC enzyme activity assay (fluorogenic substrate), HDAC1
PDE5A = target: T1, PDE5A (Homo sapiens, UniProt O76074); test: PDE enzyme activity assay (HTRF cGMP), PDE5A; details: recombinant enzyme; read-out: PDE5A1 inhibition (IC50)
T1 construct: they are full-length with N-terminal GST tag; GST (N); purchased BPS Biosciences 60050; host or cells: baculovirus infected Sf9 cells

HDAC2 = target: T2, HDAC2 (Homo sapiens, UniProt Q92769); test: HDAC enzyme activity assay (fluorogenic substrate), HDAC2
T2 construct: NM_001527; Cat. #50002) is full-length with C-terminal his tag; His (C); purchased BPS Biosciences 50002; host or cells: baculovirus infected Sf9 cells
T2 sequence (Q92769 whole entry): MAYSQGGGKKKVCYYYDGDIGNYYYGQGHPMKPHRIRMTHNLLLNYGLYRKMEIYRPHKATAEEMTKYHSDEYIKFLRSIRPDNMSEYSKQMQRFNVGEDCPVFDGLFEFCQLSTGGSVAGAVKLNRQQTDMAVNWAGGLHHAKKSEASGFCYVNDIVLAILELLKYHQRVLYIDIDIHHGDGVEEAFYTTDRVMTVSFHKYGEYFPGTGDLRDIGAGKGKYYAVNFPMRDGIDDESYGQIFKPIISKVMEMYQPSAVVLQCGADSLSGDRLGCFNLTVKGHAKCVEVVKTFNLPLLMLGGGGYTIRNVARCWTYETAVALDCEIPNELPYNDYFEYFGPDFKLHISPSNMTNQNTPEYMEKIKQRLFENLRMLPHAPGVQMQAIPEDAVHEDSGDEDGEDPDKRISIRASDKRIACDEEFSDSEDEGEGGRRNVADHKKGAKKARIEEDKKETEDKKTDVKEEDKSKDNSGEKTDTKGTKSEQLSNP

HDAC6 = target: T3, HDAC6 (Homo sapiens, UniProt Q9UBN7); test: HDAC enzyme activity assay (fluorogenic substrate), HDAC6
T3 construct: BC069243; Cat. #50006) is full-length with N-terminal GST tag; GST (N); purchased BPS Biosciences 50006; host or cells: baculovirus infected Sf9 cells
T3 sequence (Q9UBN7 1-1215): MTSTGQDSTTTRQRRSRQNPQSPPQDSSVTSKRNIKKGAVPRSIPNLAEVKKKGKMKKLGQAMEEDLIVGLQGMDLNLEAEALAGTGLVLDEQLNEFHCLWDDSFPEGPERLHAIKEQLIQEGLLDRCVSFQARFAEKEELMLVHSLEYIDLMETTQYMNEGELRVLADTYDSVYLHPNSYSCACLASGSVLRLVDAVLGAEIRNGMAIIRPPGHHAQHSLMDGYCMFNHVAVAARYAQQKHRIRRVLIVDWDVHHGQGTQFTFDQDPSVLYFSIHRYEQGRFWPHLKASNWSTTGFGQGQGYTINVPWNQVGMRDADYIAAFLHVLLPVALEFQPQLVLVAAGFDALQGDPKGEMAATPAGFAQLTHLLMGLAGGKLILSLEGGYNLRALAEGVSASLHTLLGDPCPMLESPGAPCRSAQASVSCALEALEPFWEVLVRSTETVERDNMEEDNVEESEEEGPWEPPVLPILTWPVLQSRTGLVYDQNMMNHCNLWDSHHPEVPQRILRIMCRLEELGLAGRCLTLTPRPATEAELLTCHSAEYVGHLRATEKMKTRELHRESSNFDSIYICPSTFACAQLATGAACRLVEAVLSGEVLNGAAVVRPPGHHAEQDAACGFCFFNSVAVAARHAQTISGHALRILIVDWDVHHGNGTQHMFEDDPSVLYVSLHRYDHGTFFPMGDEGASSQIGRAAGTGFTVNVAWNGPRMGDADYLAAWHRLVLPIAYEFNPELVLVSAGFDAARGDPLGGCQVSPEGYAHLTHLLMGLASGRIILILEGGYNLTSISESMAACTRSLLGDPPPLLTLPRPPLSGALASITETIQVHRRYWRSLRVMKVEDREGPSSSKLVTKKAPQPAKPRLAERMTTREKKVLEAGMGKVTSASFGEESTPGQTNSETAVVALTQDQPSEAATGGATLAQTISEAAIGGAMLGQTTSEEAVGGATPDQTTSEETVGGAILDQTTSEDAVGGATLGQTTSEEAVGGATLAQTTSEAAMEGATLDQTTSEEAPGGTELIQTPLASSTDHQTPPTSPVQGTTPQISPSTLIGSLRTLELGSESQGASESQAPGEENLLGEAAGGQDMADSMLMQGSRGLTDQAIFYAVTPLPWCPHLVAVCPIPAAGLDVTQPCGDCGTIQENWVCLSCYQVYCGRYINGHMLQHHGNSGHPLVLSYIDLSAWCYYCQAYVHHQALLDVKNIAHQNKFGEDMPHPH

[1] = recombinant enzyme, read-out: HDAC1 inhibition (IC50)
[2] = recombinant enzyme, read-out: HDAC2 inhibition (IC50)
[3] = recombinant enzyme, read-out: HDAC6 inhibition (IC50)
[4] = comparative examples, inactive, read-out: HDAC1 IC50
[5] = comparative examples, inactive, read-out: HDAC2 IC50
[6] = comparative examples, inactive, read-out: HDAC6 IC50

HDAC1, sequence (Q13547 whole entry): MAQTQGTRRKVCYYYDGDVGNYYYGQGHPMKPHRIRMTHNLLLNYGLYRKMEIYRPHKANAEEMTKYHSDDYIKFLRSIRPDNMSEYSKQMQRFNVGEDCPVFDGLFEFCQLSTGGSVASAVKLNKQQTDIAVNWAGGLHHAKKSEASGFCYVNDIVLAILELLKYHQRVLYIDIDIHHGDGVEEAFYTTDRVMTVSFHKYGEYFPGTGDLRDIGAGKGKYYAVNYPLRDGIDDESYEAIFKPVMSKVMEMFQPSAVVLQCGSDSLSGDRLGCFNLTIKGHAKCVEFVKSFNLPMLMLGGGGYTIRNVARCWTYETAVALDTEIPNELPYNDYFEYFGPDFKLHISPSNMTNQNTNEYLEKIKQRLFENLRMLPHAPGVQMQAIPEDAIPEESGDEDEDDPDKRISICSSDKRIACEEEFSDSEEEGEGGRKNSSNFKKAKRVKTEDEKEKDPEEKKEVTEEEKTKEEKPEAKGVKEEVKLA

Row | Compound | IC50 (HDAC1; [1]) | IC50 (PDE5A) | IC50 (HDAC2; [2]) | IC50 (HDAC6; [3]) | IC50 (HDAC1; [4]) | IC50 (HDAC2; [5]) | IC50 (HDAC6; [6])
1 | CCCc1nn(C)c2c(=O)[nH]c(-c3cc(CN4CCC(C(=O)NO)CC4)ccc3OCC)nc12 [Example 1-36, 1-[[4-ethoxy-3-(1-methyl-7-oxo-3-propyl-6H-pyrazolo[4,3-d]pyrimidin-5-yl)phenyl]methyl]piperidine-4-carbohydroxamic acid] | 1000 to 10000 nM | 10 to 1000 nM | > 10000 nM | 1000 to 10000 nM | – | – | –
2 | CCCc1nn(C)c2c(=O)[nH]c(-c3cc(C4CCC(CC(=O)NO)CC4)ccc3OCC)nc12 (stereo not shown) [Example 1-51] | 1000 to 10000 nM | 10 to 1000 nM | > 10000 nM | 1000 to 10000 nM | – | – | –
3 | CCCc1nn(C)c2c(=O)[nH]c(-c3cc(CC4CCC(CC(=O)NO)CC4)ccc3OCC)nc12 (racemic) [Example 1-43] | 1000 to 10000 nM | 10 to 1000 nM | > 10000 nM | 10 to 1000 nM | – | – | –
4 | CCCc1nn(C)c2c(=O)[nH]c(-c3cc(C4CCC(C(=O)NO)CC4)ccc3OCC)nc12 (stereo not shown) [Example 1-41, 4-[4-ethoxy-3-(1-methyl-7-oxo-3-propyl-6H-pyrazolo[4,3-d]pyrimidin-5-yl)phenyl]cyclohexanecarbohydroxamic acid] | > 10000 nM | 10 to 1000 nM | > 10000 nM | 1000 to 10000 nM | – | – | –
5 | CCCc1nn(C)c2c(=O)[nH]c(-c3cc(Cc4ccc(C(=O)NO)cc4OC)ccc3OCC)nc12 [Example 1-60] | > 10000 nM | 10 to 1000 nM | > 10000 nM | > 10000 nM | – | – | –
6 | CCCc1nn(C)c2c(=O)[nH]c(-c3cc(N4CCC5(CCCN(c6ncc(C(=O)NO)cn6)C5)C4)ccc3OCC)nc12 (stereo not shown) [Example 1-70] | 10 to 1000 nM | 10 to 1000 nM | 1000 to 10000 nM | 1000 to 10000 nM | – | – | –
7 | CCCc1nn(C)c2c(=O)[nH]c(-c3cc(N4CCC5(CCC(C(=O)NO)C5)CC4)ccc3OCC)nc12 (stereo not shown) [Example 1-56, 8-[4-ethoxy-3-(1-methyl-7-oxo-3-propyl-6H-pyrazolo[4,3-d]pyrimidin-5-yl)phenyl]-8-azaspiro[4.5]decane-3-carbohydroxamic acid] | > 10000 nM | 10 to 1000 nM | > 10000 nM | 1000 to 10000 nM | – | – | –
8 | CCCc1nc(C)c2c(=O)[nH]c(-c3cc(S(=O)(=O)N(C)CC(=O)N(C)OC)ccc3OCC)nn12 [Comparative Example 2-01, 2-[[4-ethoxy-3-(5-methyl-4-oxo-7-propyl-3H-imidazo[5,1-f][1,2,4]triazin-2-yl)phenyl]sulfonyl-methyl-amino]-N-methoxy-N-methyl-acetamide, reference compound] | – | – | – | – | > 20000 nM | > 20000 nM | > 20000 nM
9 | CCCc1nn(C)c2c(=O)[nH]c(-c3cc(S(=O)(=O)N4CCN(CCC(=O)NO)CC4)ccc3OCC)nc12 [Example 1-04, 3-(4-[3-(6,7-Dihydro-1-methyl-7-oxo-3-propyl-1H-pyrazolo[4,3-d]pyrimidin-5-yl)-4-ethoxyphenylsulfonyl]piperazin-1-yl)-N-hydroxypropanamide] | 1000 to 10000 nM | < 10 nM | > 10000 nM | – | – | – | –
10 | CCCc1nn(C)c2c(=O)[nH]c(-c3cc(CC4CCN(CC(=O)NO)CC4)ccc3OCC)nc12 [Example 1-32] | – | < 10 nM | > 10000 nM | 1000 to 10000 nM | – | – | –
11 | CCCc1nn(C)c2c(=O)[nH]c(-c3cc(S(=O)(=O)N4CCC(CCC(=O)NO)CC4)ccc3OCC)nc12 [Example 1-01] | > 10000 nM | 10 to 1000 nM | > 10000 nM | – | – | – | –
12 | (1R,2R)-2-(1-(4,4-difluorocyclohexyl)-3a,4,5,7a-tetrahydro-4-oxo-1H-pyrazolo[3,4-d]pyrimidin-6-yl)-N-methoxy-N-methylcyclobutanecarboxamide [Comparative Example 3-01, reference compound] | – | – | – | – | > 20000 nM | > 20000 nM | > 20000 nM
13 | CCCc1nn(C)c2c(=O)[nH]c(-c3cc(S(=O)(=O)N4CCN(CCCC(=O)NO)CC4)ccc3OCC)nc12 [Example 1-05] | 1000 to 10000 nM | < 10 nM | 1000 to 10000 nM | – | – | – | –
14 | CCCc1nn(C)c2c(=O)[nH]c(-c3cc(S(=O)(=O)N4CCN(Cc5ccc(/C=C/C(=O)NO)cc5)CC4)ccc3OCC)nc12 [Example 1-02] | 10 to 1000 nM | < 10 nM | 1000 to 10000 nM | – | – | – | –
